Drawing on PubChem BioAssay AID328 (DTP/NCI, 2004), this text covers T/C for 17 compounds.

In the experiment the test system is BDF1 mice, P388 leukemia ip, median survival T/C. Description: NCI In Vivo Anticancer Drug Screen. Data for tumor model P388 Leukemia (intraperitoneal) in B6D2F1 (BDF1) mice. As to conditions: endpoint: median survival time, higher = longer survival. In a few lines: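 T/C = treated-group survival ÷ vehicle-control survival; tumour transplanted into mice before dosing.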

The mark [1] stands for this setting: dose: 12.5 mg/kg/injection, schedule: Q01DX009 (ip), vehicle: Klucel (hydroxypropylcellulose) (HPC).
The mark [2] stands for this setting: dose: 25.0 mg/kg/injection, schedule: Q01DX009 (ip), vehicle: Klucel (hydroxypropylcellulose) (HPC).
[3] abbreviates: dose: 100.0 mg/kg/injection, schedule: Q04DX003 (ip), vehicle: Klucel (hydroxypropylcellulose) (HPC).
Setting [4] is: dose: 200.0 mg/kg/injection, schedule: Q04DX003 (ip), vehicle: Klucel (hydroxypropylcellulose) (HPC).
Where [5] appears, read: dose: 400.0 mg/kg/injection, schedule: Q04DX003 (ip), vehicle: Klucel (hydroxypropylcellulose) (HPC).
Setting [6] is: dose: 100.0 mg/kg/injection, schedule: Q04DX003 (ip), vehicle: saline.
Where [7] appears, read: dose: 200.0 mg/kg/injection, schedule: Q04DX003 (ip), vehicle: saline.
[8] abbreviates: dose: 400.0 mg/kg/injection, schedule: Q04DX003 (ip), vehicle: saline.
[9] abbreviates: dose: 50.0 mg/kg/injection, schedule: Q01DX009 (ip), vehicle: saline with Tween-80.
Where [10] appears, read: dose: 50.0 mg/kg/injection, schedule: Q04DX003 (ip), vehicle: saline with Tween-80.
[11] abbreviates: dose: 100.0 mg/kg/injection, schedule: Q01DX009 (ip), vehicle: saline with Tween-80.
Setting [12] is: dose: 200.0 mg/kg/injection, schedule: Q04DX003 (ip), vehicle: saline with Tween-80.
Setting [13] is: dose: 12.5 mg/kg/injection, schedule: Q01DX009 (ip), vehicle: saline with Tween-80.
The mark [14] stands for this setting: dose: 25.0 mg/kg/injection, schedule: Q01DX009 (ip), vehicle: saline with Tween-80.
Where [15] appears, read: dose: 100.0 mg/kg/injection, schedule: Q04DX003 (ip), vehicle: saline with Tween-80.
Setting [16] is: dose: 200.0 mg/kg/injection, schedule: Q01DX009 (ip), vehicle: saline with Tween-80.
[17] abbreviates: dose: 100.0 mg/kg/injection, schedule: Q01DX009 (ip), vehicle: Klucel (hydroxypropylcellulose) (HPC).

Structures are written as SMILES. “And” between values parts separate entries of the source, which are not always exact repeats. Identical values can stand only once. Toxic doses and inconclusive results are not listed.

For `CSC1CCCC(=O)C1` (stereo not drawn), the T/C is, setting by setting: under setting [1], 100 % of control; under setting [2], 105 % of control; under setting [3], 100 % of control; under setting [4], 95 % of control; under setting [5], 90 % of control.
Turning to `CN(N)c1cc(=O)n(C)c(=O)n1C`, the T/C is 110 % of control under setting [6], 103 % of control under setting [7] and 101 % of control under setting [8].
With `CCCCCCCC(=O)NN`, the T/C is 96 % of control (dose: 3.12 mg/kg/injection, schedule: Q01DX009 (ip), vehicle: other); 98 % of control (dose: 6.25 mg/kg/injection, schedule: Q01DX009 (ip), vehicle: other); 99 % of control (dose: 12.5 mg/kg/injection, schedule: Q01DX009 (ip), vehicle: other); 117 % of control (dose: 25.0 mg/kg/injection, schedule: Q01DX009 (ip), vehicle: other); 117 % of control (dose: 50.0 mg/kg/injection, schedule: Q01DX009 (ip), vehicle: other); 91 % of control (dose: 50.0 mg/kg/injection, schedule: Q04DX003 (ip), vehicle: water). For the same compound, the T/C is, setting by setting: (dose: 100.0 mg/kg/injection, schedule: Q01DX009 (ip), vehicle: other) 92 % of control; (dose: 100.0 mg/kg/injection, schedule: Q04DX003 (ip), vehicle: water) 124 % of control; (dose: 200.0 mg/kg/injection, schedule: Q01DX009 (ip), vehicle: other) 97 % of control.
`CCCCCCCCCCCCSC(=N)N`: the T/C by setting is: (dose: 0.39 mg/kg/injection, schedule: Q04DX003 (ip), vehicle: saline) 104 % of control; (dose: 0.78 mg/kg/injection, schedule: Q04DX003 (ip), vehicle: saline) 104 % of control; (dose: 3.12 mg/kg/injection, schedule: Q04DX003 (ip), vehicle: saline) 100 % of control; (dose: 6.25 mg/kg/injection, schedule: Q01DX009 (ip), vehicle: saline) 109 % of control; (dose: 12.5 mg/kg/injection, schedule: Q01DX009 (ip), vehicle: saline) 100 % of control; (dose: 25.0 mg/kg/injection, schedule: Q01DX009 (ip), vehicle: saline) 100 % of control.
Turning to `Nc1c(C(=O)O)ccc2c1C(=O)c1ccccc1C2=O`, the T/C is 87 % of control (dose: 44.0 mg/kg/injection, schedule: Q04DX003 (ip), vehicle: gum acacia); 92 % of control (dose: 50.0 mg/kg/injection, schedule: Q01DX009 (ip), vehicle: gum acacia); 115 % of control (dose: 67.0 mg/kg/injection, schedule: Q04DX003 (ip), vehicle: Klucel (hydroxypropylcellulose) (HPC)); 100 % of control (dose: 67.0 mg/kg/injection, schedule: Q04DX003 (ip), vehicle: gum acacia); 103 % of control (dose: 100.0 mg/kg/injection, schedule: Q01DX009 (ip), vehicle: gum acacia); 120 % of control under setting [3]. Also, the T/C was 87 % of control (dose: 100.0 mg/kg/injection, schedule: Q04DX003 (ip), vehicle: gum acacia); 110 % of control (dose: 150.0 mg/kg/injection, schedule: Q04DX003 (ip), vehicle: Klucel (hydroxypropylcellulose) (HPC)); 116 % of control (dose: 150.0 mg/kg/injection, schedule: Q04DX003 (ip), vehicle: gum acacia).
For `C/C(=C\Br)CO`, the T/C reads like this: (dose: 50.0 mg/kg/injection, schedule: Q04DX003 (ip), vehicle: saline) 90 % of control; (dose: 100.0 mg/kg/injection, schedule: Q01DX009 (ip), vehicle: saline) 105 % of control; under setting [6], 105 % of control; (dose: 200.0 mg/kg/injection, schedule: Q01DX009 (ip), vehicle: saline) 95 % of control; under setting [7], 90 % of control.
Turning to `CCOC(=O)C(Cc1ccc(N(CCCl)CCCl)cc1)NC(=O)C(Cc1ccccc1)NC=O` (stereo not drawn), the T/C by setting is: (dose: 12.5 mg/kg/injection, schedule: Q04DX003 (ip), vehicle: saline with Tween-80) 118 % of control; under setting [9], 168 % of control; under setting [10], 172 % of control; under setting [11], 90 % of control; (dose: 132.0 mg/kg/injection, schedule: Q04DX003 (ip), vehicle: saline with Tween-80) 227 % of control; (dose: 133.0 mg/kg/injection, schedule: Q04DX003 (ip), vehicle: saline with Tween-80) 200 % of control. The T/C under setting [12] was 254 % of control and 215 % of control.
As to `Cc1ccc(CC2NC(=O)NC2=O)cc1` (stereo not drawn), the T/C (dose: 6.25 mg/kg/injection, schedule: Q01DX009 (ip), vehicle: saline with Tween-80) was 104 % of control; the T/C under setting [13] was 88 % of control and 99 % of control; the T/C under setting [14] was 90 % of control and 98 % of control; the T/C under setting [9] is 98 % of control and 120 % of control; the T/C under setting [10] was 122 % of control; the T/C under setting [11] was 87 % of control and 118 % of control. Also, the T/C under setting [15] was 122 % of control; the T/C under setting [16] is 111 % of control; the T/C under setting [12] is 105 % of control; the T/C (dose: 400.0 mg/kg/injection, schedule: Q01DX009 (ip), vehicle: saline with Tween-80) was 96 % of control; the T/C (dose: 400.0 mg/kg/injection, schedule: Q04DX003 (ip), vehicle: saline with Tween-80) was 105 % of control.
`CS(=O)(=O)Nc1ccccc1[N+](=O)[O-]`: the T/C runs as follows: under setting [9], 109 % of control; under setting [11], 104 % of control and 115 % of control; under setting [16], 100 % of control.
As for `CC(=O)Nc1cc(C)c2ccc(Cl)nc2n1`, the T/C is, setting by setting: under setting [6], 97 % of control; under setting [7], 92 % of control; under setting [8], 91 % of control.
As to `Cc1csc(/N=C/c2ccc([N+](=O)[O-])o2)n1`, the T/C is 109 % of control under setting [10], 118 % of control under setting [15] and 113 % of control under setting [12].
Take `ClCc1cccc(CCl)c1`: the T/C (dose: 50.0 mg/kg/injection, schedule: Q01DX009 (ip), vehicle: saline sonified) is 108 % of control; the T/C (dose: 100.0 mg/kg/injection, schedule: Q01DX009 (ip), vehicle: saline sonified) is 108 % of control; the T/C (dose: 200.0 mg/kg/injection, schedule: Q01DX009 (ip), vehicle: saline sonified) is 86 % of control.
`Cc1nc2[nH][nH]c(=O)c2nc1C`: the T/C is 100 % of control under setting [17]; 104 % of control under setting [3]; 110 % of control (dose: 200.0 mg/kg/injection, schedule: Q01DX009 (ip), vehicle: Klucel (hydroxypropylcellulose) (HPC)); 92 % of control under setting [4]; 100 % of control under setting [5].
Turning to `NC(=S)N/N=C/c1ccc(OC(=O)COc2ccccc2)cn1`, the T/C (dose: 1.56 mg/kg/injection, schedule: Q01DX009 (ip), vehicle: saline with Tween-80) is 124 % of control; the T/C under setting [13] is 163 % of control; the T/C under setting [14] was 181 % of control; the T/C under setting [9] was 209 % of control; the T/C under setting [11] is 235 % of control.
`CCCC(=O)Nc1ccc(N)cc1OC`: the T/C was 100 % of control (dose: 5.0 mg/kg/injection, schedule: Q01DX009 (ip), vehicle: saline); 91 % of control (dose: 5.0 mg/kg/injection, schedule: Q04DX003 (ip), vehicle: saline); 100 % of control (dose: 10.0 mg/kg/injection, schedule: Q01DX009 (ip), vehicle: saline); 100 % of control (dose: 10.0 mg/kg/injection, schedule: Q04DX003 (ip), vehicle: saline); 100 % of control (dose: 20.0 mg/kg/injection, schedule: Q01DX009 (ip), vehicle: saline); 91 % of control (dose: 20.0 mg/kg/injection, schedule: Q04DX003 (ip), vehicle: saline).
Take `Nc1nc(CCl)nc(Nc2ccccc2)n1`: the T/C under setting [1] was 100 % of control; the T/C under setting [2] was 98 % of control; the T/C (dose: 50.0 mg/kg/injection, schedule: Q01DX009 (ip), vehicle: Klucel (hydroxypropylcellulose) (HPC)) is 102 % of control; the T/C under setting [17] is 100 % of control.
Consider `COc1ccc(CC2c3cc(OC)c(OC)cc3CCN2C)cc1OC` (stereo not drawn), for which the T/C (dose: 50.0 mg/kg/injection, schedule: Q01DX005 (ip), vehicle: saline with Tween-80) is 90 % of control.
